Results: ChEMBL document CHEMBL5576037, “Discovery of the first ataxia telangiectasia and Rad3-related (ATR) degraders for cancer treatment” (Eur J Med Chem, 2024)
pIC50: −log10 of the molar value. The source made the active and inactive calls. The rule behind the calls is not given here.

Assays:
[1] = Cmax in BALB/c nude mouse xenografted with human LoVo cells at 25 mg/kg, ip administered as single dose and measured after 12 hrs by LC-MS/MS analysis; type: ADME, organism-based; details: in vivo
LoVo [2] = assay: Antitumor activity against human LoVo cells xenografted in BALB/c nude mouse assessed as induction of DNA damage by measuring increase in gammaH2AX protein level; type: functional, cell-based
[3] = molecular target: T1, Protein cereblon/Serine/threonine-protein kinase ATR (Homo sapiens, UniProt Q13535+Q96SW2); assay: In vivo PROTAC activity at CRBN/ATR in BALB/c nude mouse xenografted with human LoVo cells assessed as reduction in CHK1 phosphorylation at Ser345 residue administered intraperitoneally once daily for 15 days by Western blot analysis; type: functional, organism-based; details: dose 12.5-25 mg/kg, route ip, time 15.0 day
[4] = molecular target: T1, Protein cereblon/Serine/threonine-protein kinase ATR; assay: PROTAC activity at CRBN/ATR in human LoVo cells assessed as induction of ATR degradation at 2.5 uM by Western blot analysis; type: cell-based; details: time 6-72 hrs, TDE = time-dependent effect
[5] = molecular target: T1, Protein cereblon/Serine/threonine-protein kinase ATR; assay: PROTAC activity at CRBN/ATR in human LoVo cells assessed as induction of ATR degradation measured after 72 hrs by Western blot analysis; type: cell-based
[6] = Toxicity in BALB/c nude mouse xenografted with human LoVo cells assessed as effect on heart at 12.5 to 25 mg/kg, ip administered twice daily for 15 days by H and E staining based analysis; type: organism-based; details: in vivo, 360 h, dose 12.5-25 mg/kg, time 15 day
[7] = molecular target: T1, Protein cereblon/Serine/threonine-protein kinase ATR; assay: PROTAC activity at CRBN/ATR in human LoVo cells assessed as induction of ATR degradation at 2.5 uM preincubated with AZD6738 for 4 hrs followed by compound addition and measured after 48 hrs by Western blot analysis; type: cell-based
LoVo [8] = assay: Induction of apoptosis in human LoVo cells assessed as apoptotic rate at 1 uM incubated for 48 hrs by Annexin V-FITC/PI staining based flow cytometric analysis (reference value: 5.32 %); type: functional
[9] = molecular target: T1, Protein cereblon/Serine/threonine-protein kinase ATR; assay: PROTAC activity at CRBN/ATR in human LoVo cells assessed as induction of ATR degradation at 1 uM incubated for 24 hrs by global proteomic profiling analysis; type: cell-based
[10] = Toxicity in BALB/c nude mouse xenografted with human LoVo cells assessed as effect on lung at 12.5 to 25 mg/kg, ip administered twice daily for 15 days by H and E staining based analysis; type: organism-based; details: in vivo, 360 h, dose 12.5-25 mg/kg, time 15 day
[11] = molecular target: T1, Protein cereblon/Serine/threonine-protein kinase ATR; assay: PROTAC activity at CRBN/ATR in human LoVo cells assessed as induction of ATR degradation at 2.5 uM preincubated for 36 hrs followed by compound washout and measured after 12 to 48 hrs by Western blot analysis; type: cell-based
[12] = MRT (0 to t) in BALB/c nude mouse xenografted with human LoVo cells at 25 mg/kg, ip administered as single dose and measured after 12 hrs by LC-MS/MS analysis; type: ADME, organism-based; details: in vivo
[13] = molecular target: Serine/threonine-protein kinase ATR (Homo sapiens, UniProt Q13535); assay: Inhibition of ATR (unknown origin)
LoVo [14] = assay: Induction of LBP degradation in human LoVo cells at 1 uM incubated for 24 hrs by global proteomic profiling analysis; type: cell-based
[15] = molecular target: T1, Protein cereblon/Serine/threonine-protein kinase ATR; assay: In vivo PROTAC activity at CRBN/ATR in BALB/c nude mouse xenografted with human LoVo cells assessed as reduction in ATR phosphorylation at Thr1989 residue administered intraperitoneally once daily for 15 days by Western blot analysis; type: functional, organism-based; details: dose 12.5-25 mg/kg, route ip, time 15.0 day
LoVo [16] = assay: Antiproliferative activity against ATM deficient human LoVo cells incubated for 72 hrs by CCK8 assay; type: functional, cell-based
[17] = molecular target: T2, Serine/threonine-protein kinase Chk1 (Homo sapiens) (UniProt O14757); assay: Induction of CHK1 degradation in human LoVo cells at 0.16 to 10 uM incubated for 72 hrs by Western blot analysis; type: cell-based; details: dose 0.16-10 µM
T2 sequence (whole entry): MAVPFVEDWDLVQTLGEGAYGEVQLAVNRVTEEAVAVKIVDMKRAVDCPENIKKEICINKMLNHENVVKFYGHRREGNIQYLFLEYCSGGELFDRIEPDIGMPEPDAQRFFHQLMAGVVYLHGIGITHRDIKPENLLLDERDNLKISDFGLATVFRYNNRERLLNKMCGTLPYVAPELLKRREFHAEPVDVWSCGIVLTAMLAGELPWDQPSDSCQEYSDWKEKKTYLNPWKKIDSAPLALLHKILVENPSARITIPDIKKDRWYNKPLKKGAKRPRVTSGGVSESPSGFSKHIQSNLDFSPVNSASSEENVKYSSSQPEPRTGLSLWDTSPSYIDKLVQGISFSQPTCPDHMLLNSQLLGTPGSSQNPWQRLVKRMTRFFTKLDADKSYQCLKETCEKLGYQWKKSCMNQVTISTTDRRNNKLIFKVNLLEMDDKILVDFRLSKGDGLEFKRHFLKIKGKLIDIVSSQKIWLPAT

LoVo [18] = assay: Synergistic antitumor activity against human LoVo cells xenografted in BALB/c nude mouse assessed as tumor growth inhibition at 12.5 mg/kg, ip administered once daily for 15 days in presence of cisplatin relative to control; type: functional; details: 360 h, time 15 day, read-out: TGI
LoVo [19] = assay: Antitumor activity against human LoVo cells xenografted in BALB/c nude mouse assessed as tumor growth inhibition at 25 mg/kg, ip administered […] for 15 days relative to control; type: functional; details: 360 h, time 15 day, read-out: TGI
[20] = molecular target: T1, Protein cereblon/Serine/threonine-protein kinase ATR; assay: PROTAC activity at CRBN/ATR in human LoVo cells assessed as induction of ATR degradation at 2.5 uM incubated for 4 hrs by Western blot analysis; type: cell-based
[21] = Toxicity in BALB/c nude mouse xenografted with human LoVo cells assessed as body weight loss at 12.5 to 25 mg/kg, ip administered twice daily for 15 days; type: organism-based; details: in vivo, 360 h, dose 12.5-25 mg/kg, time 15 day
[22] = molecular target: T1, Protein cereblon/Serine/threonine-protein kinase ATR; assay: In vivo PROTAC activity at CRBN/ATR in BALB/c nude mouse xenografted with human LoVo cells assessed as reduction in ATR protein level administered intraperitoneally once daily for 15 days by Western blot analysis; type: functional, organism-based; details: dose 12.5-25 mg/kg, route ip, time 15.0 day

Cmax [1]: 1180 ng/mL
Activity [3]: Dose-Dependent Effect
Activity [4]: Tde
Activity [5]: Dose-Dependent Effect
DC50 [5]: 530 nM
Activity [7]: inactive
Activity [9]: Active
Activity [11]: Active
MRT last at 12 h [12]: 4.21 h
inhibition [13]: Active
Activity [15]: Dose-Dependent Effect
pIC50 (LoVo [16]): 6.33
Activity [17]: inactive
Activity [20]: Active
Activity [22]: Dose-Dependent Effect
SMILES: C[C@@H]1COCCN1c1cc(C2([S@@](C)(=O)=NC(=O)CCc3cn(CCCCCCCC(=O)Nc4cccc5c4C(=O)N(C4CCC(=O)NC4=O)C5=O)nn3)CC2)nc(-c2ccnc3[nH]ccc23)n1 (stereo partly drawn)
Activity (LoVo [2]): Active
Activity [6]: Non-Toxic
Activity (LoVo [8]): 45.62%
Activity [10]: Non-Toxic
Activity (LoVo [14]): Active
inhibition in vivo at 12.5 mg/kg (LoVo [18]): 60.6%
inhibition in vivo at 25 mg/kg (LoVo [19]): 51.8%
Activity [21]: Non-Toxic
